10 molecules from US12492173B2, “Herbicidal substituted N-tetrazolyl aryl carboxamides” (Bayer Aktiengesellschaft, priority 2019, dated 2025) can be followed below.

Molecules are shown by their SMILES.

Common to all, as to format: in vivo
In one test the test system is Amaranthus retroflexus. Kind of test: Pre-emergence herbicidal action, AMARE. The following applies: dosage 320 g/ha; for herbicidal activity AMARE: scored visually after 3 weeks vs untreated controls (100% = plants have died). In outline: (§1)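 Weed seeds sown in sandy loam and covered; WP or EC formulations applied to soil surface as aqueous suspension or emulsion at 600 to 800 l/ha with 0.2% wetting agent. Greenhouse-grown, with damage scored visually after 3 weeks versus untreated controls (0% = like control, 100% = plants dead).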

For test [1], the system named is Echinochloa crus-galli. Briefly: Pre-emergence herbicidal action, ECHCG. The following applies: dosage 320 g/ha; for herbicidal activity ECHCG: scored visually after 3 weeks vs untreated controls (100% = plants have died). In outline:
as §1

The test system of the next test is Alopecurus myosuroides. Briefly: Post-emergence herbicidal action, ALOMY. Set-up: key: % herbicidal action vs untreated; 100 = plants died, 0 = like control. A digest of the protocol: (§2)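 Visual % damage versus untreated plants, scored about 3 weeks post-spray (100% = dead, 0% = like control). Greenhouse plants in sandy loam were treated at one-leaf stage with WP/EC formulations in water at 600 to 800 l/ha plus 0.2% wetting agent.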

In test [2] the test system is Echinochloa crus-galli. Kind of test: Post-emergence herbicidal action, ECHCG. Further details: key: % herbicidal action vs untreated; 100 = plants died, 0 = like control. In outline:
as §2

For a further test, the system named is Pharbitis purpurea. Briefly: Post-emergence herbicidal action, PHBPU. A digest of the protocol: as §2
Another test concerns Setaria viridis. Kind of test: Post-emergence herbicidal action, SETVI. Set-up: key: % herbicidal action vs untreated; 100 = plants died, 0 = like control. A digest of the protocol:
as §2

Regarding `CCn1nnnc1NC(=O)c1ccc(C(F)F)c(CS(=O)(=O)CC)c1Cl` [Example 2-325], in the test on Amaranthus retroflexus, the “herbicidal activity AMARE” value was 100%. Further, in the test on Echinochloa crus-galli [1], the “herbicidal activity ECHCG” value was 100%. Moreover, the “herbicidal action ALOMY” value with Alopecurus myosuroides (Dosage 80 g/ha) is 80. Also, the “herbicidal action ECHCG” value with Echinochloa crus-galli [2] (Dosage 80 g/ha) amounted to 100. The “herbicidal action PHBPU” value with Pharbitis purpurea (Dosage 80 g/ha) worked out at 90. For the same molecule, in the test on Setaria viridis (Dosage 80 g/ha), the “herbicidal action SETVI” value was 100.
On to `CCn1nnnc1NC(=O)c1ccc(I)c(C[S+](C)[O-])c1Cl` (stereo not drawn) [Example 2-363], for which the “herbicidal activity AMARE” value with Amaranthus retroflexus is on record as 100%. For the same molecule, the “herbicidal activity ECHCG” value with Echinochloa crus-galli [1] came out at 100%. Also, the “herbicidal action ALOMY” value in the test on Alopecurus myosuroides (Dosage 80 g/ha) came to 90. In the test on Echinochloa crus-galli [2] (Dosage 80 g/ha), the “herbicidal action ECHCG” value came out at 100. Also, in the test on Pharbitis purpurea (Dosage 80 g/ha), the “herbicidal action PHBPU” value turned out to be 90. Also, the “herbicidal action SETVI” value in the test on Setaria viridis (Dosage 80 g/ha) was 90.
With `CCn1nnnc1NC(=O)c1ccc(C(F)(F)F)c(C[S+]([O-])CC)c1Br` (stereo not drawn) [Example 2-384], in the test with Amaranthus retroflexus, the “herbicidal activity AMARE” value stood at 100%. Further, the “herbicidal activity ECHCG” value in the test with Echinochloa crus-galli [1] is on record as 100%. Further, the “herbicidal action ALOMY” value in the test on Alopecurus myosuroides (post-emergence, dosage 80 g/ha) is 90%. The “herbicidal action ECHCG” value in the test with Echinochloa crus-galli [2] (post-emergence, dosage 80 g/ha) is given as 90%. Further, the “herbicidal action PHBPU” value in the test on Pharbitis purpurea (post-emergence, dosage 80 g/ha) was found to be 90%. The “herbicidal action SETVI” value with Setaria viridis (post-emergence, dosage 80 g/ha) is recorded as 90%.
For the molecule `CCn1nnnc1NC(=O)c1ccc(C(F)(F)F)c(CS(=O)(=O)CC)c1Br` [Example 2-385], the “herbicidal activity AMARE” value in the test on Amaranthus retroflexus stood at 100%. For the same molecule, the “herbicidal activity ECHCG” value with Echinochloa crus-galli [1] is 100%. Also, in the test on Alopecurus myosuroides (post-emergence, dosage 80 g/ha), the “herbicidal action ALOMY” value is listed as 80%. Besides, the “herbicidal action ECHCG” value in the test on Echinochloa crus-galli [2] (post-emergence, dosage 80 g/ha) amounted to 90%. The “herbicidal action PHBPU” value in the test with Pharbitis purpurea (post-emergence, dosage 80 g/ha) stood at 80%. Moreover, the “herbicidal action SETVI” value in the test with Setaria viridis (post-emergence, dosage 80 g/ha) was determined as 90%.
As for `CCn1nnnc1NC(=O)c1ccc(Cl)c(CSC)c1Cl` [Example 2-559], the “herbicidal action AMARE” value in the test with Amaranthus retroflexus was 100%. The entries for the “herbicidal action ECHCG” value in the test on Echinochloa crus-galli [1] and in the test with Echinochloa crus-galli [2] (Dosage 80 g/ha) were 100% and 100, respectively. Moreover, the “herbicidal action ALOMY” value with Alopecurus myosuroides (Dosage 80 g/ha) was 90. Moreover, the “herbicidal action PHBPU” value with Pharbitis purpurea (Dosage 80 g/ha) was 100. In the test on Setaria viridis (Dosage 80 g/ha), the “herbicidal action SETVI” value is 100.
As for `CCCn1nnnc1NC(=O)c1ccc(C(F)(F)F)c(C[S+](C)[O-])c1SC` (stereo not drawn) [Example 3-162], the “herbicidal activity AMARE” value in the test with Amaranthus retroflexus turned out to be 100%. Also, the “herbicidal activity ECHCG” value in the test with Echinochloa crus-galli [1] worked out at 100%. For the same molecule, the “herbicidal action ALOMY” value in the test with Alopecurus myosuroides (post-emergence, dosage 80 g/ha) is reported as 90%. Besides, in the test with Echinochloa crus-galli [2] (post-emergence, dosage 80 g/ha), the “herbicidal action ECHCG” value worked out at 100%. Besides, in the test on Pharbitis purpurea (post-emergence, dosage 80 g/ha), the “herbicidal action PHBPU” value is recorded as 90%. Besides, the “herbicidal action SETVI” value with Setaria viridis (post-emergence, dosage 80 g/ha) was found to be 100%.
Regarding `CCCn1nnnc1NC(=O)c1ccc(C(F)(F)F)c(CS(C)(=O)=O)c1SC` [Example 3-163], in the test on Amaranthus retroflexus, the “herbicidal activity AMARE” value is 100%. Further, the “herbicidal activity ECHCG” value in the test with Echinochloa crus-galli [1] is listed as 100%. In addition, in the test with Alopecurus myosuroides (Dosage 80 g/ha), the “herbicidal action ALOMY” value amounted to 90. The “herbicidal action ECHCG” value in the test with Echinochloa crus-galli [2] (Dosage 80 g/ha) is on record as 90. In the test on Pharbitis purpurea (Dosage 80 g/ha), the “herbicidal action PHBPU” value is given as 90. In the test on Setaria viridis (Dosage 80 g/ha), the “herbicidal action SETVI” value came out at 90.
Regarding `C=CCSCc1c(C(F)(F)F)ccc(C(=O)Nc2nnnn2CCC)c1Cl` [Example 3-308], the “herbicidal activity AMARE” value in the test on Amaranthus retroflexus is recorded as 100%. In addition, the “herbicidal activity ECHCG” value in the test with Echinochloa crus-galli [1] was determined as 100%. Further, the “herbicidal action ALOMY” value in the test with Alopecurus myosuroides (Dosage 80 g/ha) is given as 100. In addition, in the test with Echinochloa crus-galli [2] (Dosage 80 g/ha), the “herbicidal action ECHCG” value is on record as 100. Besides, the “herbicidal action PHBPU” value with Pharbitis purpurea (Dosage 80 g/ha) is 90. Also, the “herbicidal action SETVI” value in the test on Setaria viridis (Dosage 80 g/ha) came to 100.
For the molecule `CCCn1nnnc1NC(=O)c1ccc(C(F)(F)F)c(CSCC(F)(F)F)c1Cl` [Example 3-311], the “herbicidal action AMARE” value in the test on Amaranthus retroflexus worked out at 100%. Also, the “herbicidal action ECHCG” value with Echinochloa crus-galli [1] is given as 80%; in the test with Echinochloa crus-galli [2] (Dosage 80 g/ha), 100. In the test with Alopecurus myosuroides (Dosage 80 g/ha), the “herbicidal action ALOMY” value is on record as 100. The “herbicidal action PHBPU” value with Pharbitis purpurea (Dosage 80 g/ha) was found to be 100. Also, the “herbicidal action SETVI” value in the test with Setaria viridis (Dosage 80 g/ha) was 80.
For `CCCn1nnnc1NC(=O)c1ccc(C(F)(F)F)c(CSCC2CC2)c1Cl` [Example 3-314], the “herbicidal activity AMARE” value in the test on Amaranthus retroflexus amounted to 100%. For the same molecule, the “herbicidal activity ECHCG” value in the test with Echinochloa crus-galli [1] was found to be 90%. Moreover, the “herbicidal action ALOMY” value in the test with Alopecurus myosuroides (post-emergence, dosage 80 g/ha) is 100%. Moreover, the “herbicidal action ECHCG” value in the test with Echinochloa crus-galli [2] (post-emergence, dosage 80 g/ha) was 100%. For the same molecule, the “herbicidal action PHBPU” value with Pharbitis purpurea (post-emergence, dosage 80 g/ha) was found to be 100%. Further, the “herbicidal action SETVI” value with Setaria viridis (post-emergence, dosage 80 g/ha) came out at 100%.
